Patent US6441184B1, “Fused heteroaromatic glucokinase activators” (Hoffmann-LA Roche Inc., priority 2000, dated 2002)

System: C57BL/6J mice
Assay: Glucokinase activator in vivo screen protocol (blood glucose after oral dosing)
Conditions: administered orally, 50 mg/kg, C57BL/6J mice fasted two hours; active = significant (p<0.05) decrease in blood glucose vs vehicle for two consecutive time points
Protocol: Glucokinase Activator in vivo Screen Protocol
C57BL/6J mice are orally dosed via gavage with Glucokinase (GK) activator at 50 mg/kg body weight following a two hour fasting period. Blood glucose determinations are made five times during the six hour post-dose study period.
Mice (n=6) are weighed and fasted for a two hour period prior to oral treatment. GK activators are formulated at 6.76 mg/ml in Gelucire vehicle (Ethanol:Gelucire44/14:PEG400q.s. 4:66:30 v/w/v. Mice are dosed orally with 7.5 μL formulation per gram of body weight to equal a 50 mg/kg dose. Immediately prior to dosing, a pre dose (time zero) blood glucose reading is acquired by snipping off a small portion of the animals tail (−1 mm) and collecting 15 μL blood into a heparinized capillary tube for analysis. Following GK activator administration, additional blood glucose readings are taken at 1, 2, 4, and 6 hours post dose from the same tail wound. Results are interpreted by comparing the mean blood glucose values of six vehicle treated mice with six GK activator treated mice over the six hour study duration.

Structure (SMILES)	glucokinase activator in vivo activity
CS(=O)(=O)c1ccc(C(CC2CCCC2)C(=O)Nc2ccc3ccccc3n2)cc1Cl (stereo not drawn) [Example 22, 2-(3-Chloro-4-methanesulfonyl-phenyl)-3-cyclopentyl-N-quinolin-2-yl-propionamide]	excellent glucokinase activator in vivo activity
CS(=O)(=O)c1ccc([C@@H](CC2CCCC2)C(=O)Nc2nc3ccccc3s2)cc1Cl [Example 19, N-Benzothiazol-2-yl-2(R)-(3-chloro-4-methanesulfonyl-phenyl)-3-cyclopentyl-propionamide]	excellent glucokinase activator in vivo activity
CS(=O)(=O)c1ccc(C(CC2CCCC2)C(=O)Nc2nc3ccccc3[nH]2)cc1Cl (stereo not drawn) [Example 20, N-(1H-Benzoimidazol-2-yl)-2-(3-chloro-4-methanesulfonyl-phenyl)-3-cyclopentyl-propionamide]	excellent glucokinase activator in vivo activity
